Structures can show the parent of a compound that is named as a salt.
How the values were obtained:
[1] = particle size distribution of micronized drug substance by laser diffraction; type: physicochemical; conditions: hydrochloride trihydrate
Source text: The coarse drug substance as received was forced into the milling chamber by a compressed air stream, through a Venturi tube with a higher pressure (P_vent) and metered into the mill at the desired rate (F-feed). Nitrogen was used as grinding gas and adjusted to the desired pressure (P_grind) to mill the drug particles. The micronized material was characterized for process yield gravimetrically, particle size distribution (PSD) by laser diffraction (Malvern Masersizer) and moisture content by Karl Fischer (KF) analysis. A finer micronized drug substance PSD as evidenced with smaller volume weighted median diameter (Dv50=1.8 μm) and linear interpolated size of the 90th percentile (Dv90=4.5 μm) was obtained using higher Venturi (P_Vent=7.5 bar) and grinding pressures (P_Grind=6 bar) as compared with a batch with a slightly coarser PSD of […] when using the jet mill operated at lower pressures (ca. P_Vent=5.5 bar and P_Grind=4.5 bar) (Table 1).

plasma proteins = conditions: cited from earlier work
[2] = octanol-water partition coefficient; cited from earlier work
[3] = in vivo; cited from earlier work
PDE5 enzyme = PDE5 enzyme (Homo sapiens, UniProt O76074); conditions: cited from earlier work
[4] = in vivo; cited from earlier work; remark: listed apart in the source
[5] = inhaled, following pulmonary administration; peak at first time-point tested; cited from earlier work
human patients with PAH = conditions: 5 mg orally twice per day (b.i.d.); cited from earlier work

SMILES | protein binding in the systemic circuit (plasma proteins) | log P [2] | half-life at the catalytic site on the PDE enzyme (PDE5 enzyme) | other results
CCCc1nc(C)c2c(=O)[nH]c(-c3cc(S(=O)(=O)N4CCN(CC)CC4)ccc3OCC)nn12 [Batch 1, vardenafil hydrochloride trihydrate] | – | – | – | PSD by Laser diffraction Dv10 [1]: 0.5 μm; PSD by Laser diffraction Dv50 [1]: 1.8 μm; PSD by Laser diffraction Dv90 [1]: 4.5 μm; PSD by Laser diffraction Span [1]: 2.2
CCCc1nc(C)c2c(=O)[nH]c(-c3cc(S(=O)(=O)N4CCN(CC)CC4)ccc3OCC)nn12 [Batch 2, vardenafil hydrochloride trihydrate] | – | – | – | PSD by Laser diffraction Dv10 [1]: 0.7 μm; PSD by Laser diffraction Dv50 [1]: 2.9 μm; PSD by Laser diffraction Dv90 [1]: 5.5 μm; PSD by Laser diffraction Span [1]: 1.7
COc1ccc(CN=c2[nH]c(N3CCC[C@H]3CO)ncc2C(=O)NCc2ncccn2)cc1Cl [avanafil, (S)-4-[(3-chloro-4-methoxybenzyl)amino]-2-[2-(hydroxymethyl)-1-pyrrolidinyl]-N-(2-pyrimidinylmethyl)-5-pyrimidinecarboxamide] | 99% | 2.6 | – | –
COc1ccccc1Oc1c(NS(=O)(=O)c2ccc(C(C)(C)C)cc2)nc(-c2ncccn2)nc1OCCO [bosentan] | 98% | 3.7 | – | –
CCCCC[C@H](O)/C=C/[C@@H]1[C@H]2C/C(=C/CCCC(=O)O)O[C@H]2C[C@H]1O [epoprostenol, (5Z,9α,11α,13E,15S)-6,9-epoxy-11,15-dihydroxyprosta-5,13-dien-1-oic acid] | – | 2.9 | – | –
CC#CCC(C)[C@H](O)/C=C/[C@@H]1[C@H]2C/C(=C/CCCC(=O)O)C[C@H]2C[C@H]1O (stereo partly drawn) [iloprost, (E)-(3aS, 4R, 5R, 6aS)-hexahydro-5-hydroxy-4-[(E)-(3S,4RS)-3-hydroxy-4-methyl-1-octen-6-ynyl]-Δ^2(1H),Δ-pentalenevaleric acid] | – | 4.8 | – | duration of action [3]: about 30 min
CCCc1nn(C)c2c(=O)[nH]c(-c3cc(S(=O)(=O)N4CCN(C)CC4)ccc3OCC)nc12 [sildenafil, 1-[[3-(6,7-dihydro-1-methyl-7-oxo-3-propyl-1H-pyrazolo[4,3-d]pyrimidin-5-yl)-4-ethoxyphenyl]sulfonyl]-4-methylpiperazine] | 96% | – | 3 min | –
CN1CC(=O)N2[C@H](c3ccc4c(c3)OCO4)c3[nH]c4ccccc4c3C[C@@H]2C1=O [tadalafil, (6R,12aR)-2,3,6,7,12,12a-hexahydro-2-methyl-6-(1,3-benzodioxol-5-yl)-pyrazino[1′,2′:1,6]pyrido[3,4-b]indole-1,4-dione] | 94% | – | 7 min | –
CCCCC[C@H](O)CC[C@@H]1[C@H]2Cc3cccc(OCC(=O)O)c3C[C@H]2C[C@H]1O [treprostinil, (1R,2R,3aS,9aS)-[[2,3,3a,4,9,9a-hexahydro-2-hydroxy-1-[(3S)-3-hydroxyoctyl]-1H-benz[f]inden-5-yl]oxy]acetic acid] | – | 4.1 | – | oral bioavailability [4]: 18%
CCCc1nc(C)c2c(=O)nc(-c3cc(S(=O)(=O)N4CCN(CC)CC4)ccc3OCC)[nH]n12 [vardenafil, 1-[[3-(1,4-dihydro-5-methyl-4-oxo-7-propylimidazo[5,1-f][1,2,4]triazin-2-yl)-4-ethoxyphenyl]sulfonyl]-4-ethyl-piperazine] | 93-95% | – | about 2 hr | tmax [5]: ≤ 2 min; safety and efficacy in PAH (human patients with PAH): safe and effective
